Measurements: ChEMBL document CHEMBL3351504, “Discovery and structure-based optimization of adenain inhibitors” (ACS Med Chem Lett, 2014)
≈ marks a conversion by molar mass, not a printed value.

Assays:
[1] = Inhibition of human adenovirus serotype 8 adenain protease expressed in Escherichia coli […] (DE3) using Ac-WLRGG*ARC(PT14)-NH2 as substrate by FLT assay; parameters: species or system Human adenovirus 8
[2] = Permeability from apical to basolateral side in human Caco2 cells; assay type: ADME, cell-based; settings: Caco-2, read-out: permeability
[3] = Inhibition of human adenovirus serotype 5 adenain protease expressed in Escherichia coli […] (DE3) using Ac-WLRGG*ARC(PT14)-NH2 as substrate by FLT assay; parameters: species or system Human adenovirus 5
[4] = Permeability from basolateral to apical side in human Caco2 cells; assay type: ADME, cell-based; settings: Caco-2, read-out: permeability
[5] = High throughput equilibrium solubility at pH 6.8; assay type: physicochemical; settings: buffer
Human adenovirus 5 = test: Antiviral activity against human adenovirus 5 infected in HEK293 cells assessed as reduction in viral induced cytopathogenicity incubated for 5 days by Celltiter-Glo luminescent cell viability assay; assay type: functional, organism-based; settings: Human mastadenovirus C, HEK293, 120 h
[6] = Inhibition of adenovirus adenain; parameters: species or system unidentified adenovirus

Row | SMILES | IC50 [1] | Papp A→B [2] | IC50 [3] | Papp B→A [4] | solubility thermodynamic [5] | IC50 [6] | EC50 (Human adenovirus 5)
1 | CC[C@H](C)[C@H](NC(=O)[C@@H](O)c1cc(Cl)cc(Cl)c1)C(=O)NCC(=O)NCC#N | 0.05 µM | 30 nm/s | 0.05 µM | 280 nm/s | – | – | –
2 | CC[C@H](C)[C@H](NC(=O)C(c1cc(Cl)cc(Cl)c1)N(C)C)C(=O)NCc1ccnc(C#N)n1 (mixture of isomers) | 0.06 µM | 178 nm/s | 0.02 µM | 101 nm/s | 61 µM | – | 6.7 µM
3 | CS(=O)(=O)N[C@H](C(=O)N[C@@H](Cc1ccccc1)C(=O)NCC(=O)NCC#N)c1cccc(Cl)c1 | 0.04 µM | 12 nm/s | 0.03 µM | 75 nm/s | 170 µM (≈ 86 µg/mL) | 0.04 µM | –
4 | N#CCNC(=O)CNC(=O)[C@H](Cc1ccccc1)NC(=O)Cc1cccc(Cl)c1 | 0.38 µM | 12 nm/s | 0.28 µM | 74 nm/s | 150 µM (≈ 61.9 µg/mL) | – | –
5 | C[C@@H](O)[C@H](NC(=O)Cc1cc(Cl)cc(Cl)c1)C(=O)NCC(=O)NCC#N | 0.08 µM | – | 0.03 µM | – | 121 µM (≈ 48.6 µg/mL) | – | –
6 | N#Cc1ncc(C(=O)NCc2ccccc2)cn1 | – | – | – | – | – | 24 µM | –
7 | CC(C)(C)[C@H](NC(=O)Cc1cc(Cl)cc(Cl)c1)C(=O)NCC(=O)NCC#N | 0.08 µM | 54 nm/s | 0.04 µM | 238 nm/s | 85 µM (≈ 35.1 µg/mL) | – | –
8 | N#CCNC(=O)CNC(=O)[C@H](Cc1ccccc1)NC(=O)Cc1cc(Cl)cc(Cl)c1 | 0.07 µM | 12 nm/s | 0.04 µM | 81 nm/s | 30 µM (≈ 13.4 µg/mL) | – | –
9 | N#CCNC(=O)CNC(=O)[C@H](Cc1ccccc1)NC(=O)[C@@H](O)c1cccc(Cl)c1 | 0.07 µM | 22 nm/s | – | 32 nm/s | – | – | –
10 | N#CCNC(=O)CNC(=O)C(Cc1ccccn1)NC(=O)Cc1cc(Cl)cc(Cl)c1 (racemic) | 0.36 µM | 7 nm/s | 0.14 µM | 150 nm/s | 111 µM (≈ 49.8 µg/mL) | – | –
11 | N#CCNC(=O)CNC(=O)[C@H](CN)NC(=O)Cc1cc(Cl)cc(Cl)c1 | 0.08 µM | 10 nm/s | 0.04 µM | 12 nm/s | 891 µM (≈ 344 µg/mL) | – | –

More lines, in order of falling IC50 [1], values ahead:

Row | IC50 [1] | Papp A→B [2] | IC50 [3] | Papp B→A [4] | solubility thermodynamic [5] | IC50 [6] | SMILES | EC50 (Human adenovirus 5)
12 | 0.03 µM | – | 0.006 µM | – | 50 µM | – | CC(C(=O)N[C@@H](Cc1ccccc1)C(=O)NCC(=O)NCC#N)c1cc(Cl)cc(Cl)c1 (mixture of isomers) | –
13 | 0.03 µM | 26 nm/s | 0.005 µM | 180 nm/s | 1000 µM (≈ 429 µg/mL) | – | CC[C@H](C(=O)N[C@H](C(=O)NCC(=O)NCC#N)[C@@H](C)O)c1cc(Cl)cc(Cl)c1 | –
14 | 0.02 µM | 183 nm/s | 0.008 µM | 113 nm/s | 236 µM (≈ 106 µg/mL) | – | CC[C@H](C)[C@H](NC(=O)[C@@H](O)c1cc(Cl)cc(Cl)c1)C(=O)NCc1ccnc(C#N)n1 | 7.2 µM
15 | 0.02 µM | 73 nm/s | 0.01 µM | 122 nm/s | 5 µM (≈ 2.21 µg/mL) | – | CC[C@H](C(=O)N[C@H](C(=O)NCC(=O)NCC#N)C(C)(C)C)c1cc(Cl)cc(Cl)c1 | 2.5 µM
16 | 0.004 µM | 232 nm/s | 0.002 µM | 148 nm/s | 52 µM (≈ 22 µg/mL) | – | COC[C@H](NC(=O)Cc1cc(Cl)cc(Cl)c1)C(=O)NCc1ccnc(C#N)n1 | 3.2 µM
17 | 0.003 µM | 122 nm/s | 0.002 µM | 141 nm/s | 556 µM (≈ 235 µg/mL) | – | C[C@@H](O)[C@H](NC(=O)Cc1cc(Cl)cc(Cl)c1)C(=O)NCc1ccnc(C#N)n1 | 1.2 µM
